The values below come from PubChem BioAssay (NCI).

Experiment in all cases: growth of human tumour cells (NCI), 48 h
For assay [1], the system named is PC-3 prostate.
The subject of assay [2] is BT-549 breast.
In assay [3] the test system is XF 498 CNS.
The test system of assay [4] is DMS 273 small cell lung.
Assay [5] deals with DMS 114 small cell lung.
Assay [6] has as its system DLD-1 colon.
The test system of assay [7] is MDA-N.
Assay [8] has as its system HOP-18 NSCLC.

Where “and” joins values, the source holds several entries; their conditions need not be identical. Identical values can stand only once.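 Briefly, cells in 96-well plates were exposed to five compound concentrations for 48 h, and endpoints were estimated by linear interpolation. GI50 = concentration required for 50% inhibition of growth. TGI is the concentration that stops growth completely.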

As to `O=C(Nc1ccc(S(=O)(=O)Nc2nccs2)cc1)c1cccnc1Nc1cccc(Cl)c1`, the GI50 was 14.3 µM in assay [1] and 16 µM in assay [2]. In addition, the TGI was 43 µM in assay [1] and 39.3 µM in assay [2].
For `Nc1ccccc1C#CC#Cc1ccccc1N`, in that order: 23.1 µM, 20.5 µM, over 100 µM and 49 µM.
With `Oc1ccc2ccccc2c1C=NCCCN=Cc1c(O)ccc2ccccc12`, the GI50 in assay [1] was 21.6 µM; in assay [2], 18.5 µM. Also, the figures for the TGI in assay [1] and in assay [2] were over 100 µM and 47.8 µM, respectively.
For the compound `N#CC1=C(N)Oc2cc3c(cc2C1c1cccs1)OCO3` (centres undefined), the GI50 was 1.16 µM in assay [1] and 0.882 µM in assay [2]. Besides, the TGI is over 100 µM in assay [1] and 37.6 µM in assay [2].
For `COC(=O)c1c[nH]cc1CCc1c[nH]cc1C(=O)OC`, the TGI in assay [3] and in assay [4] was over 100 µM throughout.
Take `O=C1/C(=C/c2cccc([N+](=O)[O-])c2)COc2ccc(O)c(O)c21`: in assay [1], the GI50 is 1.16 µM and the TGI was found to be 4.14 µM. Moreover, in assay [2], the GI50 is 2.42 µM and the TGI was found to be 4.84 µM.
As for `Cc1ccc(Nc2nc(NCCO)c3ccccc3n2)cc1C`, in assay [1], the GI50 is 4.24 µM and the TGI turned out to be 16.7 µM. Besides, in assay [2], the GI50 was 11.5 µM and the TGI was 23.6 µM.
For `COc1ccc(C(=O)Cn2c(C(=O)c3ccc(Cl)cc3)nc3ccccc32)cc1` the same measures were 21.2 µM, over 100 µM, over 38.7 µM and over 100 µM.
Take `O=C(Nc1ccc(-c2nc3cc4ccccc4cc3[nH]2)cc1)c1cccc(Br)c1`: in assay [1], the GI50 was 3.02 µM and the TGI came out at 13.4 µM. Besides, in assay [2], the GI50 was 12.6 µM and the TGI was 28.5 µM.
For `CC(C)C[C@H](NC(=O)[C@H](Cc1ccccc1)n1ccc(N2CCCCC2)cc1=O)B(O)O` the same measures were 4.19 µM, over 100 µM, 0.364 µM and 4.32 µM.
Turning to `CCCN1C(=O)C/C(=C\C(C)=O)Nc2ccccc21`, the TGI in assay [5], in assay [3], in assay [6] and in assay [4] was over 100 µM throughout.
With `Cc1ccc(NC(c2ccccc2)c2ccc3cccnc3c2O)cc1` (centres undefined), the TGI in assay [1] was determined as 14.3 µM; in assay [2] it was 15.3 µM; in assay [7], 17.7 µM.
Regarding `COc1ccc(-c2ccc(C3CC(c4ccc(O)cc4)=NN3)o2)c([N+](=O)[O-])c1` (centres undefined), the GI50 in assay [1] is 25.9 µM; in assay [2], 32.8 µM. In addition, the TGI in assay [1] and in assay [2] was over 100 µM in each case.
In the case of `CCCc1c2c([nH]c(=O)c1C)C(=O)c1[nH]c(=O)c(C)c(CCC)c1C2=O`, the TGI in assay [5] is 16.4 µM; in assay [8], over 100 µM.
For the compound `CC1=C(C)C(=O)c2c(c(C(=O)c3ccccc3)c3nc4ccccc4n3c2C)C1=O`, in assay [1], the GI50 was over 100 µM and the TGI was over 100 µM. Besides, in assay [2], the GI50 is 54.7 µM and the TGI was over 100 µM.
For `CN(C)c1ccc(-c2cc(=O)c3ccccc3[nH]2)cc1`, the TGI in assay [5], in assay [6] and in assay [4] was over 100 µM each time.
For `C=C1C(=O)O[C@@H]2C[C@@H]1CC[C@]1(C)O[C@H]1CC[C@@]1(C)O[C@@H]1CC[C@@]2(C)O`, the GI50 in assay [1] was 21.2 µM; in assay [2], 31.9 µM. For the same compound, the TGI in assay [1] was 94.9 µM; in assay [2], 89.5 µM.
As for `O=C(O)c1ccc(S(=O)(=O)c2ccccc2)c([N+](=O)[O-])c1`, the TGI in assay [5], in assay [8], in assay [6] and in assay [4] was over 100 µM in each case.
Turning to `O=C(O)c1ccc(NC(=O)C2C(=O)C(=O)N(c3ccc(C(=O)O)cc3)C2=O)cc1` (centres undefined), the TGI in assay [3], in assay [6] and in assay [4] was over 100 µM each time.
With `COc1cccc(-c2nn(-c3ccccc3)cc2-c2ccnc(NCCNS(=O)(=O)c3ccc(Cl)cc3)c2)c1`, in assay [1], the GI50 is 2.44 µM and the TGI is over 100 µM. In assay [2], the GI50 was 4.07 µM and the TGI was over 100 µM.
For `O=[N+]([O-])c1cnc(Sc2ccncn2)c([N+](=O)[O-])c1`, in assay [1], the GI50 is 15.1 µM and the TGI came to 29.2 µM. In assay [2], the GI50 was 15.2 µM and the TGI was 28.9 µM.
Turning to `CC(C)C[C@@H](NC(=O)[C@@H](Cc1ccccc1)NC(=O)c1cnccn1)B1O[C@H]2[C@H](O)[C@@H](C(=O)NCCCC[C@@H]3NC(=O)[C@@H](Cc4ccccc4)NC(=O)[C@H](CC(=O)O)NC(=O)CNC(=O)[C@H](CCCN=C(N)N)NC3=O)O[C@@H](CN)[C@H]2O1`, in assay [1], the GI50 is 0.0273 µM and 0.0153 µM; the TGI was 0.389 µM and 0.563 µM. Moreover, in assay [2], the GI50 was 0.003 µM and 0.005 µM; the TGI was 0.0112 µM and 0.0113 µM.
Take `COc1ccc(C(=O)/C=C/c2ccc(O)c(O)c2F)c(OC)c1`: the GI50 in assay [1] is 6.18 µM; in assay [2], 6.24 µM; in assay [7], 2.38 µM. In addition, the TGI in assay [1] is 17.7 µM and 24 µM; in assay [2], 18 µM and 26.2 µM; in assay [7], 27.2 µM and 25.8 µM.
As for `OCCN(CCO)N=Nc1ccc(-c2nc3ccccc3[nH]2)cc1`, the GI50 is 39.4 µM in assay [1] and 42.7 µM in assay [2]. Besides, the results for the TGI in assay [1] and in assay [2] were over 100 µM and 97.8 µM, respectively.
As for `O=C(Cc1nc2ccccc2s1)C(=O)Nc1ccc(Cl)cc1`, the TGI in assay [5], in assay [8], in assay [6] and in assay [4] was over 100 µM each time.
Turning to `CCC1=C(C)/C(=C/c2[nH]c(C)c(C(=O)CCCCC(=O)OC)c2C)N=C1c1ccc[nH]1`, in assay [1], the GI50 was 4.4 µM and the TGI stood at 18 µM. In assay [2], the GI50 was 3.8 µM and the TGI is over 41.3 µM.
For the compound `COc1ccc(C(=O)Cn2c(C(=O)c3ccc(OC)cc3)nc3ccccc32)cc1`, the GI50 in assay [1] was 2.43 µM; in assay [2], 3.52 µM. Also, the TGI in assay [1] and in assay [2] was over 100 µM throughout.
As for `CCn1c(=O)c(-c2ccn[nH]2)cc2c(C)nc(N)nc21`, in assay [1], the GI50 was 0.397 µM and the TGI is over 100 µM. Besides, in assay [2], the GI50 is 0.225 µM and the TGI stood at 4.29 µM.
Consider `CCNc1nnc(CSc2nc(-c3ccccc3)c(-c3ccccc3)[nH]2)s1`, for which the results for the TGI in assay [5], in assay [6] and in assay [4] were 63.1 µM, 52.7 µM and 42.9 µM, respectively.
Consider `CN(C)/[N+]([O-])=N/Oc1cc(Nc2cccc(C(=O)O)c2)c([N+](=O)[O-])cc1[N+](=O)[O-]`, for which the GI50 in assay [1] is over 100 µM; in assay [2], 72.2 µM. In addition, the TGI in assay [1] and in assay [2] was over 100 µM in each case.
For `CC[C@@H]1C[C@@H]2CN3CCc4c([nH]c5ccc(OC)cc45)C(COC(=O)c4ccc(OC)c(OC)c4)(C2)C13`, the TGI in assay [5] is 71.8 µM; in assay [3], 46.1 µM; in assay [8] it was over 100 µM.
With `Nc1c(C(=O)Nc2ccccc2)sc2nc3c(cc12)CCCCCC3`, in assay [1], the GI50 was 0.44 µM and the TGI was over 100 µM. Moreover, in assay [2], the GI50 was 0.286 µM and the TGI came to 4.05 µM.
For `CNc1ccccc1C(=O)N/N=C/C=C/c1ccccc1`, in assay [1], the GI50 was 2.56 µM and the TGI is over 100 µM. Moreover, in assay [2], the GI50 is 53.2 µM and the TGI was over 100 µM.
Turning to `CS(=O)(=O)c1ccc(Oc2cc(F)cc(C#N)c2)c2c1[C@H](O)[C@H](F)[C@@H]2F`, in assay [1], the GI50 was over 100 µM and the TGI is over 100 µM. Also, in assay [2], the GI50 was over 100 µM and the TGI was over 100 µM.
Turning to `CCNC(=O)C[C@@H]1N=C(c2ccc(Cl)cc2)c2cc(OC)ccc2-n2c(C)nnc21`, in assay [1], the GI50 is 3.15 µM and the TGI is over 100 µM. Moreover, in assay [2], the GI50 is over 28.1 µM and the TGI is over 100 µM.
Regarding `CC(C)(C)[Si](C)(C)OCC1CCC(n2cnc3c(NC(=O)c4ccccc4)ncnc32)O1` (centres undefined), the TGI is 52.6 µM in assay [1] and 30.9 µM in assay [7].
On to `COc1cc(/C=C(/C)[N+](=O)[O-])ccc1O`, for which the GI50 was 2.68 µM and 2.74 µM in assay [1]; 2.34 µM and 3.08 µM in assay [2]. The TGI was 7.27 µM and 6.86 µM in assay [1]; 4.67 µM and 8.82 µM in assay [2].
Turning to `O=C1OC(c2ccco2)=N/C1=C\c1ccc(Cl)c(Cl)c1`, the TGI in assay [1], in assay [2] and in assay [7] was over 100 µM in each case.
For `C=C1C(=O)O[C@H]2[C@H]1CC/C(COC(=O)C(=O)c1c[nH]c3ccccc13)=C\CC[C@@]1(C)O[C@@H]21`, in assay [1], the GI50 is 2.13 µM and the TGI was 4.37 µM. Besides, in assay [2], the GI50 was 2.08 µM and the TGI came to 5.22 µM.
Regarding `Cn1ccnc1C(=O)/C=C/c1ccc(CC(=O)Nc2ccc(Cl)cc2)cc1`, in assay [1], the GI50 was 1.37 µM and the TGI is over 25 µM. In addition, in assay [2], the GI50 was 3.53 µM and the TGI is over 25 µM.
Regarding `Oc1ccc(C(c2ccccc2)(c2ccccc2)c2ccccc2)cc1`, in assay [1], the GI50 was 20.6 µM and the TGI came out at 36.1 µM. Moreover, in assay [2], the GI50 was 17.1 µM and the TGI was 31.3 µM.
Consider `O=C(/C=C/c1ccco1)c1ccc(Nc2nc(Nc3ccc(F)cc3)nc(Nc3ccc(Cl)cc3)n2)cc1`, for which, in assay [1], the GI50 was 1.54 µM and the TGI is over 37.9 µM. Moreover, in assay [2], the GI50 is 2.23 µM and the TGI was over 29.6 µM.
For `O=C(Nc1ccc(Cl)c([N+](=O)[O-])c1)Nc1nc2ccccc2s1` the same measures were 3.43 µM, 13 µM, 16.4 µM and 44.7 µM.
On to `CN(C)CCNC(=O)c1ccc(Nc2nc3ccccc3c3occc23)cc1`, for which, in assay [1], the GI50 was 3 µM and the TGI was determined as 14.3 µM. Besides, in assay [2], the GI50 was 5.69 µM and the TGI was found to be 23.9 µM.
On to `CN(N=O)C(=O)Nc1c[nH]c(=O)[nH]c1=O`, for which the TGI in assay [1] and in assay [7] was over 100 µM throughout.
For `Cc1ccc(C)c(NC(=O)C(=O)C2C(=O)C3=C(CC2(C)C)Nc2ccccc2S3)c1` (centres undefined), the TGI in assay [1], in assay [2] and in assay [7] was over 100 µM each time.
With `CC(Cn1c2c3ccccc3ccc2c2oc(=O)c3ccccc3c21)N(C)C` (centres undefined), the TGI in assay [5], in assay [3] and in assay [6] was over 100 µM in each case.
With `CCN1C(=O)C/C(=C\C(C)=O)Nc2ccccc21`, the GI50 in assay [1] and in assay [2] was over 100 µM each time. Besides, the TGI in assay [1] is over 100 µM; in assay [5] it was over 100 µM; in assay [3], over 100 µM; in assay [6], 44.7 µM; in assay [2], over 100 µM; in assay [4] it was over 100 µM.
For `O=C1c2ccccc2-c2c1c1ccccc1c(=O)n2CCCNCCCn1c2c(c3ccccc3c1=O)C(=O)c1ccccc1-2`, the GI50 in assay [1] was 2.08 µM; in assay [2], 8.42 µM. Also, the TGI is 5.52 µM in assay [1] and 19.7 µM in assay [2].
In assay [5], `CN/N=C(/Cc1occc(=O)c1O)C(=O)Nc1ccc(C)c(C)c1` registered a TGI of over 100 µM.
For `COc1ccc(CN2C(=O)/C(=C\c3cc(OC)c(OC)c(OC)c3)c3cc(OC)ccc32)cc1`, in assay [1], the GI50 was 3.35 µM and the TGI amounted to 19.5 µM. In addition, in assay [2], the GI50 is 3.34 µM and the TGI was 20.4 µM.
As to `O=C1C2C(C(=O)N1O)N(Cc1ccccc1)C(=O)N2Cc1ccccc1` (centres undefined), the TGI in assay [5], in assay [3] and in assay [6] was over 100 µM each time.
